The test system of experiment [1] is PANC-1. Description: Anticancer activity against human PANC1 cells. Format: functional, cell-based.
The subject of experiment [2] is PANC-1. As to the kind of experiment: Cytotoxicity against human PANC1 cells assessed as decrease in cell viability after 72 hrs by MTT assay. The class given is functional, cell-based. As to conditions: PANC-1, 72 h.

Usually IC50 stands for the point on the concentration scale where inhibition reaches its midpoint. `COC(=O)c1ccc2c(c1)nc(NC(=O)c1ccccc1)n2CCCc1ccccc1`: inhibition with PANC-1 [1] was half-maximal at 5 µM (IC50). Turning to `CCN(CC)CCNC(=O)c1ccc(NCCN2C(=O)c3ccccc3C2=O)cc1`, the half-inhibitory concentration (IC50) in the experiment on PANC-1 [2] amounted to 5 µM.

(Values after ChEMBL document CHEMBL4396911, “Recent progress in histone methyltransferase (G9a) inhibitors as anticancer agents” (Eur J Med Chem, 2019).)
